Data set [1] deals with T1, F508del CFTR (Homo sapiens, UniProt P13569, DEL508-508).
T1 construct: HBE cells derived from 3 F508del homozygous donors; endogenous in cells; host or cells: HBE cells from 3 F508del homozygous donors
Briefly: Ussing chamber chloride transport, F508del/MF HBE. To be noted: for chloride transport: treatment for 16 to 24 h. In kind it is cell-based. As for the experimental part: (§1) Ussing chamber studies were conducted to measure F508del CFTR-mediated chloride transport in HBE cells derived from 3 F508del homozygous donors and 5 F508del/MF donors (G542X, 3 donors; E585X, 1 donor; 3905InsT, 1 donor). As a positive control, maximally effective concentrations of N-(benzenesulfonyl)-6-[3-[2-[1-(trifluoromethyl)cyclopropyl] ethoxy] pyrazol-1-yl]-2-[ ( 4S)-2,2,4-trimethylpyrrolidin-1-yl] pyridine-3-carboxamide (see WO 2018/064632) and N-[(6-amino-2-pyridyl)sulfonyl]-6-(3-fluoro-5-isobutoxy-phenyl)-2-[(4S)-2,2,4-trimethylpyrrolidin-1-yl]pyridine-3-carboxamide (see WO 2016/057572) in combination with Compound II/Compound III were included in each experiment.

Data set [2] is described as follows: Pharmacokinetics after a single oral administration in male rats. Format: in vivo. The following applies: nominal dose 3 mg/kg, mean oral bioavailability.
Data set [3] is described as follows: Safety analysis of an ongoing clinical study. In kind it is in vivo. The method, then: A safety analysis of an ongoing clinical study was performed for 37 subjects in Cohorts A1 to A5, 33 subjects in Cohort B, and 17 subjects in Cohort C, who were exposed to at least 1 dose of study drug (Compound I or placebo) as a monotherapy and as part of a triple combination with Compound II or Compound III.

A short description of data set [4]: Systemic exposure with increasing dose and repeated oral administration for 28 d in dogs. In kind it is in vivo.
Data set [5] can be described thus: Pharmacokinetics after a single oral administration in male monkeys. In kind it is in vivo. The following applies: nominal dose 1 mg/kg, mean oral bioavailability.
In a further data set the target is CFTR (Homo sapiens, UniProt P13569). Briefly: Membrane potential dye assay in human intestinal epithelial enteroid cells. Format: cell-based. To be noted: CFTR-mediated chloride transport; 18-24 h incubation; acute 10 µM forskolin and 300 nM Compound III. The method, then: Base medium (ADF+++) consisted of Advanced DMEM/Ham’s F12, 2 mM Glutamax, 10 mM HEPES, […] penicillin/streptomycin.
Sequence of CFTR (P13569 whole entry): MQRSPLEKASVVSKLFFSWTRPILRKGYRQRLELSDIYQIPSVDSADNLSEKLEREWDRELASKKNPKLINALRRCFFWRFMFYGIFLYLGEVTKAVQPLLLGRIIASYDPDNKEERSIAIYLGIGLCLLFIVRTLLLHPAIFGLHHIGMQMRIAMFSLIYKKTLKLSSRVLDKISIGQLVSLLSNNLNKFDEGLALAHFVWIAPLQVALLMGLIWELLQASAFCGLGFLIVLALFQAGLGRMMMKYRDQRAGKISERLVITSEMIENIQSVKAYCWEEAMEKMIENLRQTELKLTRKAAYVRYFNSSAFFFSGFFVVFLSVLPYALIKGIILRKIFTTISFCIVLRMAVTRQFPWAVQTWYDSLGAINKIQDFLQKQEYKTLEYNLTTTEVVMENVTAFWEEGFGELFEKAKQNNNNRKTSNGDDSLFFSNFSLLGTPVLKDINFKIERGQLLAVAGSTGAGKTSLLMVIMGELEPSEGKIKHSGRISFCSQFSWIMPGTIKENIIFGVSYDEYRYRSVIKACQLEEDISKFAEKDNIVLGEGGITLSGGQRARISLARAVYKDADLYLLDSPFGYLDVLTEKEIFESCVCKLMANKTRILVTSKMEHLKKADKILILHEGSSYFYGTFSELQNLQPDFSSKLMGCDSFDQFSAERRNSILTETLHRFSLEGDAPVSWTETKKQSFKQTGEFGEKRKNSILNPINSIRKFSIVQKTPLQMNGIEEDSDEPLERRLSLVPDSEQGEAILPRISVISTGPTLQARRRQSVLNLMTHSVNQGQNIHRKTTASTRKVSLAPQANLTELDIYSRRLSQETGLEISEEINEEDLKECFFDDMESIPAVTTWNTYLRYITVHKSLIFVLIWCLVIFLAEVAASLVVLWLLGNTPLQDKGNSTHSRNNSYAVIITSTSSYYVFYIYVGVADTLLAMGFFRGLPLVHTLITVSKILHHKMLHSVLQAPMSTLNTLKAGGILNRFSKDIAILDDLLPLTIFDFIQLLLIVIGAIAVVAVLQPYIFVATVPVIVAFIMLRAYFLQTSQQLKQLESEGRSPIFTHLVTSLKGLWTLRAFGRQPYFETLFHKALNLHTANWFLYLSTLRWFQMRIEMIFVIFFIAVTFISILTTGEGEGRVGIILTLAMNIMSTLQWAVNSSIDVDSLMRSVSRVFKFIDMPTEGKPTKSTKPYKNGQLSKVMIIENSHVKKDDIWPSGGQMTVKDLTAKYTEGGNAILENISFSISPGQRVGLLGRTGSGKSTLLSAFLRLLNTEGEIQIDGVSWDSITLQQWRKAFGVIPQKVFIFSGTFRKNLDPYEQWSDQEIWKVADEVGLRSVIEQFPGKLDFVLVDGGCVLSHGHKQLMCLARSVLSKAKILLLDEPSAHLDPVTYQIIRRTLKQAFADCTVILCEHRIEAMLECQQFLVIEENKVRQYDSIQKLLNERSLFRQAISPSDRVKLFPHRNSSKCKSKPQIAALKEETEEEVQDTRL
Intestinal enteroid maintenance medium (IEMM) consisted of ADF+++, 1x B27 supplement, 1x N2 supplement, 1.25 mM N-acetyl cysteine, 10 mM Nicotinamide, 50 ng/mL hEGF, 10 nM Gastrin, 1 µg/mL hR-spondin-1, 100 ng/mL hNoggin, TGF-b type 1 inhibitor A-83-01, 100 µg/mL Primocin, 10 µM P38 MAPK inhibitor SB202190.
Bath 1 Buffer consisted of 1 mM MgC12, 160 mM NaCl, 4.5 mM KC1, 10 mM HEPES, 10 mM Glucose, 2 mM CaCl2.
Chloride Free Buffer consisted of 1 mM Magnesium Gluconate, 2 mM Calcium Gluconate, 4.5 mM Potassium Gluconate, 160 mM Sodium Gluconate, 10 mM HEPES, 10 mM Glucose.
Bath1 Dye Solution consisted of Bath 1 Buffer, 0.04% Pluronic F127, 20 µM Methyl Oxonol, 30 µM CaCCinh-A01, 30 µM Chicago Sky Blue. […]
Enteroid cells were incubated with test compound in IEMM for 18-24 h at 37° C., 95% humidity and 5% CO2. […] Chloride transport was initiated by addition of Chloride Free Dye Stimulation Solution and the fluorescence signal was read for 15 min. […] Chloride transport was then expressed as a percentage of the chloride transport following treatment with 3 µM Compound I, 3 µM Compound II, and 300 nM acute Compound III triple combination control (% Activity).

The nature of data set [6]: Pharmacokinetics after a single oral administration in male dogs. In kind it is in vivo. To be noted: nominal dose 1 mg/kg, mean oral bioavailability.
The target of data set [7] is T1, F508del CFTR. Briefly: Ussing chamber chloride transport, F508del/F508del HBE. In kind it is cell-based. The following applies: for chloride transport: treatment for 16 to 24 h. As for the experimental part:
as §1

A short description of data set [8]: Systemic exposure with increasing dose and repeated oral administration for 28 d in rats. Format: in vivo.
Setting [9] is: with a fixed combination of Compound II.
The mark [10] stands for this setting: with a fixed concentration of Compound III or Compound II/Compound III.

This note sets out measurements from patent publication US20230303589A1, “CRYSTALLINE FORMS OF CFTR MODULATORS” (Vertex Pharmaceuticals Incorporated, priority 2020, published 2023).

Molecules are shown by their SMILES.

T1 sequence (P13569 with tags, fused parts or gaps DEL508-508): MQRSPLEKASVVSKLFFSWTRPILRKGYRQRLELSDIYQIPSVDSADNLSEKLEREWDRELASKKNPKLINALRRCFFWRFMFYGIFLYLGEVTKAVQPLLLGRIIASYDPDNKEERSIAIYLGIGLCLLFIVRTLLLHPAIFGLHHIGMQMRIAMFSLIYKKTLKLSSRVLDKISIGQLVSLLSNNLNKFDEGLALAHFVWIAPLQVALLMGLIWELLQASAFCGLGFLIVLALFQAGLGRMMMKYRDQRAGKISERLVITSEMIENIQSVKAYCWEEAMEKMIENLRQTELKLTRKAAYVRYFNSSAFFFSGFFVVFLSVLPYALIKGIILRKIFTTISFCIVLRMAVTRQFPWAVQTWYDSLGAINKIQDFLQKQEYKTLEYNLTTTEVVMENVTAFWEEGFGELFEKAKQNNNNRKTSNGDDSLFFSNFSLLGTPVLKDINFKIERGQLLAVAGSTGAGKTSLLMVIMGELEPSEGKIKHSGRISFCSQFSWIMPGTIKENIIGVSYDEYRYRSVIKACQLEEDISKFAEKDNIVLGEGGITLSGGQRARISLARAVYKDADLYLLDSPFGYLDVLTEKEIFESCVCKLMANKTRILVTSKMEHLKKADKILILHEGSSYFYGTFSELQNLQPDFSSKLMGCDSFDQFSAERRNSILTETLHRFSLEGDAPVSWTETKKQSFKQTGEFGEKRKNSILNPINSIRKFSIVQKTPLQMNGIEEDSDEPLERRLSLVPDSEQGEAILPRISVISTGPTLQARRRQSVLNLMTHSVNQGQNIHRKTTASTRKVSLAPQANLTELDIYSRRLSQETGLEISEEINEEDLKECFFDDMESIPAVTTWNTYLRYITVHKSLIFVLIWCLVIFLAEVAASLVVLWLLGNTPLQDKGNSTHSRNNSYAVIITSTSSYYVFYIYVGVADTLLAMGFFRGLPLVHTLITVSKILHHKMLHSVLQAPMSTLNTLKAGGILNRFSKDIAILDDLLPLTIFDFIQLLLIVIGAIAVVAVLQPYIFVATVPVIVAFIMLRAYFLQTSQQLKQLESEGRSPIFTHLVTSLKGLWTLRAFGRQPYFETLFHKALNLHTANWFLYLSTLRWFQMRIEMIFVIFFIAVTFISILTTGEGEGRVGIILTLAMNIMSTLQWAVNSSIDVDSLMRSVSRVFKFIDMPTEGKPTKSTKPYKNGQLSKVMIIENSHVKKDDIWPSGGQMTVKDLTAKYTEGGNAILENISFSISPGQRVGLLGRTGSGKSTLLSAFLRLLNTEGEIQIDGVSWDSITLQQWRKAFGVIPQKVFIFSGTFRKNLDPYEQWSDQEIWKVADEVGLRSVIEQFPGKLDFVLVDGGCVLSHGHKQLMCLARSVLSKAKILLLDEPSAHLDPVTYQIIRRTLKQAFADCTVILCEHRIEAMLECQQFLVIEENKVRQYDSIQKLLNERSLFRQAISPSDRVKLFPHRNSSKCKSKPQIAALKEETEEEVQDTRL

By EC50 is commonly meant the concentration needed to bring the measured effect to its halfway point. Turning to `CC1(C)C[C@@H]2CCCNc3cccc(n3)S(=O)(=O)NC(=O)c3ccc(-n4ccc(OCCC5C6(CC6)C56CC6)n4)nc3N1C2` [Compound I, (14S)-8-[3-(2-{Dispiro[2.0.2.1]heptan-7-yl}ethoxy)-1H-pyrazol-1-yl]-12,12-dimethyl-2λ6-thia-3,9,11,18,23-pentaazatetracyclo[17.3.1.111,14.05,10]tetracosa-1(22),5,7,9,19(23),20-hexaene-2,2,4-trione], the chloride transport entry on F508del CFTR [1] and on F508del CFTR [7] was “modest increase” throughout. Also, the synergy analysis entry was “modestly synergistic” on F508del CFTR [1] (setting [9]), “highly synergistic” on F508del CFTR [1] (setting [10]), “modestly synergistic” on F508del CFTR [7] (setting [9]) and “highly synergistic” on F508del CFTR [7] (setting [10]). Besides, the results for the F in [2], in data set [5] and in data set [6] were 76.9%, 12.9% and 49.7%, respectively. Moreover, the safety and tolerability result was “generally safe and well-tolerated” in [3] (monotherapy, up to a dose of 60 mg qd); “generally safe and well-tolerated” in data set [3] (up to 20 mg qd in triple combination with Compound II and Compound III). In addition, the “systemic exposure as the dose increased” value in data set [4] and in [8] was “increased in a more than doseproportional manner” in each case. In addition, the EC50 at CFTR is under 1000 nM. The “Dosenormalized exposure, sex comparison” value in data set [8] is recorded as “higher in female rats than male rats”.
Take `CC(C)(C)c1cc(C(C)(C)C)c(NC(=O)c2c[nH]c3ccccc3c2=O)cc1O` [Compound III, N-[2,4-bis(1,1-dimethylethyl)-5-hydroxyphenyl]-1,4-dihydro-4-oxoquinoline-3-carboxamide, reference compound]: the chloride transport entry at F508del CFTR [1] and at F508del CFTR [7] was “strongly potentiated chloride transport in the presence of Compound I or in combination with Compound I/Compound II” throughout.
